Experimental data as given in patent US9073918B2, “Pyrazolo[4,3-b]pyridine-7-amine inhibitors of ALK5” (Takeda Pharmaceutical Company Limited, priority 2010, dated 2015).

Key:
cellular TGF-β R1 ALK5 = target: T1, cellular TGF-β R1 ALK5 (Homo sapiens, UniProt P36897); experiment: Cellular inhibition of ALK5 (CellSensor SBE-bla HEK 293T beta-lactamase reporter); type: cell-based; conditions: cellular inhibition of ALK5, SBE-bla HEK 293T cells, TGFb-1 stimulated 5 hours; average where measured in multiple experiments
T1 construct: host or cells: CellSensor SBE-bla HEK 293T
T1 sequence (P36897 34-503): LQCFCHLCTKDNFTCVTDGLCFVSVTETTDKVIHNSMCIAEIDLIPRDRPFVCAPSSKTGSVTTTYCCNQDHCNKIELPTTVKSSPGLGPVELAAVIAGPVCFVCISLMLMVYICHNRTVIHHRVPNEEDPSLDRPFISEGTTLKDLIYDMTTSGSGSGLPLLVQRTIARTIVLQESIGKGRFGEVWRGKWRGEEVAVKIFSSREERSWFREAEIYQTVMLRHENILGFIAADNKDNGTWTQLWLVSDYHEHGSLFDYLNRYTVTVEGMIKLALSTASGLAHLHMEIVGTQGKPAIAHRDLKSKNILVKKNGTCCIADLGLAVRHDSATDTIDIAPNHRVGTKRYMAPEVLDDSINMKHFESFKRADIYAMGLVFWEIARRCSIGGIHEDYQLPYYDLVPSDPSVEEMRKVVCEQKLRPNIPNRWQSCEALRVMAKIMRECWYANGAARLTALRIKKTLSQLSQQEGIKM
Text: Test compounds were screened for cellular TGF-β R1 ALK5 inhibition by use of a CellSensor® SBE-bla HEK 293T (K1550, Invitrogen Corp. Madison, Wis.) cell line. The CellSensor® SBE-bla HEK 293T cell line contains a beta-lactamase reporter gene under control of the SBE response element stably integrated into HEK 293T cells. The SBE response element is a DNA region that binds activated SMADs which results from the binding of TGF-β to, and subsequent activation of ALK5.
The assay procedure was as follows:
CellSensor® SBE-bla HEK 293T cell line were plated at 12,000 cells/well in 40 ul DMEM plus 5 ug/ml blasticidin into 384-well, black-wall, clear-bottom assay plate and incubated overnight.
The following day 5 uL of 10×, 2.5-fold serially diluted test compounds in DMSO were added into cells to a final compound concentration of 1× and DMSO concentration of 0.5%. Assay was incubated for 1 hour at 37° C., 5% CO2, 5 uL of 100 ng/mL TGFb-1 was then added to activate ALK5 and incubated for 5 hours at 37° C., 5% CO2, 10 uL of detector, LiveBLAzer FRET B/G substrate (CCF4-AM, Invitrogen Corp. Madison, Wis.) was added to cells and incubated for 2 hours at RT. Assay was measured using Spectramax, a bottom-read fluorescence plate reader, at excitation setting of 405 nm and emission settings of 460 nm and 530 nm.
Response is defined as the ratio of background corrected 460 nm emission values/background corrected 530 nm emission values. Cellular activity was defined as percent inhibition of uninhibited ALK5 activity (wells treated with DMSO+TGF-β). The percent inhibition of cellular ALK5 at a given compound concentration is defined as: 100%×[1−(response compound+TGF-β/response DMSO+TGF-β)] where response compound+TGF-β is defined as the activity in the presence of test compound and response DMSO+TGF-β is defined as the uninhibited cellular ALK5 activity. The pIC50 value (negative log of the molar concentration of the compound that produces 50% inhibition) of a test compound is calculated by non-linear least squares curve fitting. pIC50 values, the negative of the log of the IC50, are calculated by non-linear curve fitting of the compound concentrations and percent of inhibition to the standard pIC50 equation.
Where inhibition was measured in multiple experiments the value in Table 2 is an average. N.T. means not tested.

TGF-β R1 ALK5 = target: T2, TGF-β R1 ALK5 (Homo sapiens, UniProt P36897); experiment: In vitro inhibition of ALK5 (LanthaScreen activity assay, TR-FRET); type: biochemical
T2 construct: purchased Invitrogen PV5837
T2 sequence (P36897 34-503): T1 sequence (P36897 34-503)

Row | IC50 (cellular TGF-β R1 ALK5) [nM] | IC50 (TGF-β R1 ALK5) [nM] | Compound
1 | 158 | 50.1 | NC(=O)Cn1ncc2nccc(Nc3ccnc(-c4cc(F)ccc4F)c3)c21 [Example 86, 2-(7-(2-(2,5-difluorophenyl)pyridin-4-ylamino)-1H-pyrazolo[4,3-b]pyridin-1-yl)acetamide]
2 | 251 | 25.1 | NC(=O)Cn1cc2nccc(Nc3ccnc(-c4cc(F)ccc4F)c3)c2n1 [Example 87, 2-(7-(2-(2,5-difluorophenyl)pyridin-4-ylamino)-2H-pyrazolo[4,3-b]pyridin-2-yl)acetamide]
3 | 158 | 10 | Cc1ccc(F)c(-c2cc(Nc3c(F)cnc4cn(CC(N)=O)nc34)c(C)cn2)n1 [Example 88, 2-(6-fluoro-7-(3′-fluoro-5,6′-dimethyl-2,2′-bipyridin-4-ylamino)-2H-pyrazolo[4,3-b]pyridin-2-yl)acetamide]
4 | 200 | 25.1 | Cc1ccc(F)c(-c2cc(Nc3ccnc4cnn(CC5CC5)c34)ccn2)n1 [Example 89, 1-(cyclopropylmethyl)-N-(3′-fluoro-6′-methyl-2,2′-bipyridin-4-yl)-1H-pyrazolo[4,3-b]pyridin-7-amine]
5 | 63.1 | 7.94 | Cc1ccc(F)c(-c2cc(Nc3ccnc4cn(CCCO)nc34)c(C)cn2)n1 [Example 90, 3-(7-(3′-fluoro-5,6′-dimethyl-2,2′-bipyridin-4-ylamino)-2H-pyrazolo[4,3-b]pyridin-2-yl)propan-1-ol]
6 | 158 | 20 | Cc1ccc(F)c(-c2cc(Nc3c(F)cnc4cn(CCO)nc34)c(C)cn2)n1 [Example 91, 2-(6-fluoro-7-(3′-fluoro-5,6′-dimethyl-2,2′-bipyridin-4-ylamino)-2H-pyrazolo[4,3-b]pyridin-2-yl)ethanol]
7 | 501 | 79.4 | CCNC(=O)n1ncc2nccc(Nc3nc(-c4cc(F)ccc4F)nc(C)c3C)c21 [Example 92, 7-(2-(2,5-difluorophenyl)-5,6-dimethylpyrimidin-4-ylamino)-N-ethyl-1H-pyrazolo[4,3-b]pyridine-1-carboxamide]
8 | 25.1 | 5.01 | CCNC(=O)n1ncc2nccc(Nc3ccnc(-c4cc(F)ccc4F)c3)c21 [Example 93, 7-(2-(2,5-difluorophenyl)pyridin-4-ylamino)-N-ethyl-1H-pyrazolo[4,3-b]pyridine-1-carboxamide]
9 | 20 | 2 | CNC(=O)n1ncc2nccc(Nc3ccnc(-c4cc(F)ccc4F)c3)c21 [Example 94, 7-(2-(2,5-difluorophenyl)pyridin-4-ylamino)-N-methyl-1H-pyrazolo[4,3-b]pyridine-1-carboxamide]
10 | 158 | 20 | Cc1nc(-c2cc(F)ccc2F)cc(Nc2ccnc3c[nH]nc23)c1C [Example 95, N-(6-(2,5-difluorophenyl)-2,3-dimethylpyridin-4-yl)-2H-pyrazolo[4,3-b]pyridin-7-amine]
11 | 63.1 | 20 | Cc1cnc(-c2cc(F)ccc2F)nc1Nc1ccnc2cn[nH]c12 [Example 96, N-(2-(2,5-difluorophenyl)-5-methylpyrimidin-4-yl)-1H-pyrazolo[4,3-b]pyridin-7-amine]
12 | 398 | 15.8 | CCNC(=O)n1ncc2nccc(Nc3nc(-c4cc(F)ccc4F)ncc3C)c21 [Example 97, 7-(2-(2,5-difluorophenyl)-5-methylpyrimidin-4-ylamino)-N-ethyl-1H-pyrazolo[4,3-b]pyridine-1-carboxamide]
13 | 25.1 | 6.31 | Cc1ccc(F)c(-c2cc(Nc3ccnc4cnn(C[C@@H](C)O)c34)ccn2)n1 [Example 98, (R)-1-(7-(3′-fluoro-6′-methyl-2,2′-bipyridin-4-ylamino)-1H-pyrazolo[4,3-b]pyridin-1-yl)propan-2-ol]
14 | 1260 | 501 | Cc1ccc(F)c(-c2cc(Nc3c(F)cnc4cn(CC(C)(C)O)nc34)c(C)cn2)n1 [Example 99, 1-(6-fluoro-7-(3′-fluoro-5,6′-dimethyl-2,2′-bipyridin-4-ylamino)-2H-pyrazolo[4,3-b]pyridin-2-yl)-2-methylpropan-2-ol]
15 | 1260 | 398 | Cc1ccc(F)c(-c2cc(Nc3c(F)cnc4cn(C[C@H](C)O)nc34)ccn2)n1 [Example 100A, (S)-1-(6-fluoro-7-(3′-fluoro-6′-methyl-2,2′-bipyridin-4-ylamino)-2H-pyrazolo[4,3-b]pyridin-2-yl)propan-2-ol]
16 | 251 | 63.1 | Cc1ccc(F)c(-c2cc(Nc3c(F)cnc4cnn(C[C@H](C)O)c34)ccn2)n1 [Example 100B, (S)-1-(6-fluoro-7-(3′-fluoro-6′-methyl-2,2′-bipyridin-4-ylamino)-1H-pyrazolo[4,3-b]pyridin-1-yl)propan-2-ol]
17 | 100 | 25.1 | Cc1ccc(F)c(-c2cc(Nc3ccnc4cnn(CCF)c34)ccn2)n1 [Example 101, N-(3′-fluoro-6′-methyl-2,2′-bipyridin-4-yl)-1-(2-fluoroethyl)-1H-pyrazolo[4,3-b]pyridin-7-amine]
18 | 50.1 | 15.8 | Cc1ccc(F)c(-c2cc(Nc3ccnc4cn(CCF)nc34)ccn2)n1 [Example 102, N-(3′-fluoro-6′-methyl-2,2′-bipyridin-4-yl)-2-(2-fluoroethyl)-2H-pyrazolo[4,3-b]pyridin-7-amine]
19 | 316 | 79.4 | Cc1ccc(F)c(-c2cc(Nc3ccnc4cn(CC(F)F)nc34)ccn2)n1 [Example 104, 2-(2,2-difluoroethyl)-N-(3′-fluoro-6′-methyl-2,2′-bipyridin-4-yl)-2H-pyrazolo[4,3-b]pyridin-7-amine]
20 | 39.8 | 20 | Cc1ccc(F)c(-c2cc(Nc3ccnc4cnn(CC(F)F)c34)ccn2)n1 [Example 105, 1-(2,2-difluoroethyl)-N-(3′-fluoro-6′-methyl-2,2′-bipyridin-4-yl)-1H-pyrazolo[4,3-b]pyridin-7-amine]
21 | 1260 | 126 | Cc1ccc(F)c(-c2cc(Nc3ccnc4cnn(C[C@H](C)O)c34)ccn2)n1 [Example 106, (S)-1-(7-(3′-fluoro-6′-methyl-2,2′-bipyridin-4-ylamino)-1H-pyrazolo[4,3-b]pyridin-1-yl)propan-2-ol]
22 | 39.8 | 6.31 | Cc1ccc(F)c(-c2cc(Nc3ccnc4cn(C[C@H](C)O)nc34)ccn2)n1 [Example 107, (S)-1-(7-(3′-fluoro-6′-methyl-2,2′-bipyridin-4-ylamino)-2H-pyrazolo[4,3-b]pyridin-2-yl)propan-2-ol]
23 | 7.94 | 1 | Cc1cnc(-c2cc(F)ccc2F)cc1Nc1ccnc2cn[nH]c12 [Example 108, N-(2-(2,5-difluorophenyl)-5-methylpyridin-4-yl)-1H-pyrazolo[4,3-b]pyridin-7-amine]
24 | 20 | 1.58 | CCNC(=O)n1ncc2nccc(Nc3cc(-c4cc(F)ccc4F)ncc3C)c21 [Example 109, 7-(2-(2,5-difluorophenyl)-5-methylpyridin-4-ylamino)-N-ethyl-1H-pyrazolo[4,3-b]pyridine-1-carboxamide]
25 | 158 | 5.01 | Cc1cnc(-c2cc(F)ccc2F)cc1Nc1ccnc2cnn(C(=O)NC(C)C)c12 [Example 110, 7-(2-(2,5-difluorophenyl)-5-methylpyridin-4-ylamino)-N-isopropyl-1H-pyrazolo[4,3-b]pyridine-1-carboxamide]
26 | 12600 | 501 | CNC(=O)Cn1cc2nccc(Nc3ccnc(-c4nc(C)ccc4F)c3)c2n1 [Example 111, 2-(7-(3′-fluoro-6′-methyl-2,2′-bipyridin-4-ylamino)-2H-pyrazolo[4,3-b]pyridin-2-yl)-N-methylacetamide]
